According to PubChem BioAssay AID330 (DTP/NCI, 2004):
Where “and” joins values, the source holds several entries; their conditions need not be identical. Equal entries are not always repeated. Toxic doses and inconclusive results are not listed.

Test system: P388 leukemia ip, CD2F1 mice, survival T/C
Experiment: NCI In Vivo Anticancer Drug Screen. Data for tumor model P388 Leukemia (intraperitoneal) in CD2F1 (CDF1) mice
Details: endpoint: median survival time, higher = longer survival
Procedure, shortened: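 Mice carrying the transplanted tumor received test compound or vehicle. Survival was recorded in each group, and the value is the treated-group measurement divided by that of the vehicle-treated control group.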

[1] = dose: 60.0 mg/kg/injection, schedule: Q01DX005 (ip), vehicle: Klucel (hydroxypropylcellulose) (HPC)
[2] = dose: 120.0 mg/kg/injection, schedule: Q01DX005 (ip), vehicle: Klucel (hydroxypropylcellulose) (HPC)
[3] = dose: 240.0 mg/kg/injection, schedule: Q01DX005 (ip), vehicle: Klucel (hydroxypropylcellulose) (HPC)
[4] = dose: 50.0 mg/kg/injection, schedule: Q01DX005 (ip), vehicle: saline with Tween-80
[5] = dose: 100.0 mg/kg/injection, schedule: Q01DX005 (ip), vehicle: saline with Tween-80
[6] = dose: 200.0 mg/kg/injection, schedule: Q01DX005 (ip), vehicle: saline with Tween-80
[7] = dose: 12.5 mg/kg/injection, schedule: Q01DX009 (ip), vehicle: other
[8] = dose: 25.0 mg/kg/injection, schedule: Q01DX009 (ip), vehicle: other
[9] = dose: 50.0 mg/kg/injection, schedule: Q01DX005 (ip), vehicle: Klucel (hydroxypropylcellulose) (HPC)
[10] = dose: 200.0 mg/kg/injection, schedule: Q01DX005 (ip), vehicle: Klucel (hydroxypropylcellulose) (HPC)
[11] = dose: 50.0 mg/kg/injection, schedule: Q01DX009 (ip), vehicle: Klucel (hydroxypropylcellulose) (HPC)
[12] = dose: 100.0 mg/kg/injection, schedule: Q01DX009 (ip), vehicle: Klucel (hydroxypropylcellulose) (HPC)
[13] = dose: 200.0 mg/kg/injection, schedule: Q01DX009 (ip), vehicle: Klucel (hydroxypropylcellulose) (HPC)
[14] = dose: 60.0 mg/kg/injection, schedule: Q01DX005 (ip), vehicle: saline with Tween-80
[15] = dose: 120.0 mg/kg/injection, schedule: Q01DX005 (ip), vehicle: saline with Tween-80
[16] = dose: 240.0 mg/kg/injection, schedule: Q01DX005 (ip), vehicle: saline with Tween-80

SMILES: CSc1nc2c(NN)ncnc2s1
- T/C (dose: 80.5 mg/kg/injection, schedule: Q01DX001 (ip), vehicle: distilled water + alcohol): 106 % of control
- T/C (dose: 161.0 mg/kg/injection, schedule: Q01DX001 (ip), vehicle: distilled water + alcohol): 102 % of control
- T/C (dose: 322.0 mg/kg/injection, schedule: Q01DX001 (ip), vehicle: distilled water + alcohol): 102 % of control

SMILES: [CH3][Ga][CH3].[CH3][Ga][CH3].[CH3][Ga][CH3].[CH3][Ga][CH3].[OH3+].[OH3+].[OH3+].[OH3+]
- T/C (dose: 5.0 mg/kg/injection, schedule: Q04DX003 (ip), vehicle: saline with Tween-80): 90 % of control
- T/C (dose: 10.0 mg/kg/injection, schedule: Q04DX003 (ip), vehicle: saline with Tween-80): 90 % of control

SMILES: CCOC(=O)c1cn(CC)c2c(ccc3cnccc32)c1=O
- T/C [1]: 103 % of control
- T/C [2]: 100 % of control
- T/C [3]: 98 % of control

SMILES: COC(=O)CC(C(=O)OC)C(C(=O)OC)C(C(=O)OC)C(CC(=O)OC)C(=O)OC (stereo unspecified)
- T/C (dose: 100.0 mg/kg/injection, schedule: Q04DX002 (ip), vehicle: saline with Tween-80): 98 % of control
- T/C (dose: 200.0 mg/kg/injection, schedule: Q04DX002 (ip), vehicle: saline with Tween-80): 104 % of control
- T/C (dose: 400.0 mg/kg/injection, schedule: Q04DX002 (ip), vehicle: saline with Tween-80): 102 % of control

SMILES: COC(=O)C(Cc1c[nH]c2ccccc12)NC(=O)C(CCCCN)N(C(=O)OCc1ccccc1)C(=O)OCc1ccccc1 (stereo unspecified)
- T/C [4]: 92 % of control
- T/C [5]: 91 % of control
- T/C [6]: 86 % of control

SMILES: COc1cccc2c1C(=O)c1c(O)c3c(c(O)c1C2=O)CC(O)(C(=O)COc1ccccc1)CC3OC1CC(NC(=O)C(F)(F)F)C(O)C(C)O1 (stereo unspecified)
- T/C (dose: 1.56 mg/kg/injection, schedule: Q01DX009 (ip), vehicle: other): 98 % of control and 102 % of control
- T/C (dose: 3.13 mg/kg/injection, schedule: Q01DX009 (ip), vehicle: other): 102 % of control and 110 % of control
- T/C [7]: 105 % of control
- T/C [8]: 114 % of control

SMILES: O=C1C2CSCN2C(=O)C2CSCN12 (stereo unspecified)
- T/C (dose: 100.0 mg/kg/injection, schedule: Q01DX001 (ip), vehicle: Klucel (hydroxypropylcellulose) (HPC)): 102 % of control
- T/C (dose: 200.0 mg/kg/injection, schedule: Q01DX001 (ip), vehicle: Klucel (hydroxypropylcellulose) (HPC)): 99 % of control
- T/C (dose: 400.0 mg/kg/injection, schedule: Q01DX001 (ip), vehicle: Klucel (hydroxypropylcellulose) (HPC)): 105 % of control

SMILES: Cc1ccc(S(=O)(=O)NC(=O)c2cnc(N(C)C)s2)cc1
- T/C [9]: 104 % of control
- T/C (dose: 100.0 mg/kg/injection, schedule: Q01DX005 (ip), vehicle: Klucel (hydroxypropylcellulose) (HPC)): 101 % of control
- T/C [10]: 107 % of control

SMILES: O=C1Nc2ccccc2C12Nc1ccccc1S2 (stereo unspecified)
- T/C [4]: 100 % of control
- T/C [5]: 101 % of control
- T/C [6]: 110 % of control

SMILES: Nc1cc2c(cc1O)C1C(C3C2C2(Cl)C(Cl)C(Cl)C3(Cl)C2(Cl)Cl)C2(Cl)C(Cl)C(Cl)C1(Cl)C2(Cl)Cl (stereo unspecified)
- T/C [11]: 100 % of control
- T/C [12]: 100 % of control
- T/C [13]: 96 % of control

SMILES: CC1C2CCN(C)C1Cc1ccc(O)cc12 (stereo unspecified)
- T/C [4]: 94 % of control
- T/C [5]: 92 % of control
- T/C [6]: 100 % of control

SMILES: O=C(CN1CCC(O)(c2ccc(F)cc2)CC1)N1CCN(C/C=C/c2ccccc2)CC1
- T/C [1]: 96 % of control
- T/C [2]: 95 % of control
- T/C [3]: 95 % of control

SMILES: COC1CC(CC2CCC(C)C(C(C)C(=O)O)O2)OC2(OC(C)(C3CCC(C)(C4OC(C5OC(O)(CO)C(C)CC5C)CC4C)O3)CC2C)C1C (stereo unspecified)
- T/C (dose: 0.08 mg/kg/injection, schedule: Q01DX009 (ip), vehicle: Klucel (hydroxypropylcellulose) (HPC)): 103 % of control
- T/C (dose: 0.15 mg/kg/injection, schedule: Q01DX009 (ip), vehicle: Klucel (hydroxypropylcellulose) (HPC)): 109 % of control
- T/C (dose: 0.31 mg/kg/injection, schedule: Q01DX009 (ip), vehicle: Klucel (hydroxypropylcellulose) (HPC)): 104 % of control and 105 % of control and 107 % of control
- T/C (dose: 2.5 mg/kg/injection, schedule: Q01DX009 (ip), vehicle: Klucel (hydroxypropylcellulose) (HPC)): 102 % of control and 123 % of control and 91 % of control
- T/C (dose: 5.0 mg/kg/injection, schedule: Q01DX009 (ip), vehicle: Klucel (hydroxypropylcellulose) (HPC)): 100 % of control

SMILES: O=C(c1ccccc1)c1ccccc1NCC(O)COc1ccc(Cl)cc1 (stereo unspecified)
- T/C [14]: 88 % of control and 96 % of control
- T/C [15]: 100 % of control
- T/C [16]: 99 % of control

SMILES: Cc1ccc(NC2=NCCS2)cc1Cl
- T/C [11]: 110 % of control
- T/C [12]: 115 % of control
- T/C [13]: 89 % of control

SMILES: c1ccc2c(c1)[nH]c1cc3c(cc12)CCCCC3
- T/C [14]: 107 % of control
- T/C [15]: 91 % of control
- T/C [16]: 97 % of control

SMILES: O=Nc1cc(S(=O)(=O)O)c2cccnc2c1O
- T/C (dose: 100.0 mg/kg/injection, schedule: Q04DX002 (ip), vehicle: saline): 100 % of control
- T/C (dose: 200.0 mg/kg/injection, schedule: Q04DX002 (ip), vehicle: saline): 100 % of control
- T/C (dose: 400.0 mg/kg/injection, schedule: Q04DX002 (ip), vehicle: saline): 90 % of control

SMILES: Oc1cc(Br)ccc1/C=N/Nc1ccccn1
- T/C [14]: 90 % of control
- T/C [15]: 96 % of control
- T/C [16]: 101 % of control

SMILES: c1ccc2c(SCCCCCCCCSc3c4ccccc4nc4ccccc34)c3ccccc3nc2c1
- T/C [1]: 101 % of control
- T/C [2]: 86 % of control
- T/C [3]: 86 % of control

SMILES: CC12CN3CC(C)(C1=O)C(=O)C(C)(C3)C2=O
- T/C (dose: 60.0 mg/kg/injection, schedule: Q01DX005 (ip), vehicle: saline): 94 % of control
- T/C (dose: 120.0 mg/kg/injection, schedule: Q01DX005 (ip), vehicle: saline): 92 % of control
- T/C (dose: 240.0 mg/kg/injection, schedule: Q01DX005 (ip), vehicle: saline): 94 % of control

SMILES: CCCCc1ccc2nc(C)cc(N/N=C/c3ccc(OC)c4ccccc34)c2c1
- T/C (dose: 12.5 mg/kg/injection, schedule: Q01DX005 (ip), vehicle: Klucel (hydroxypropylcellulose) (HPC)): 100 % of control
- T/C (dose: 25.0 mg/kg/injection, schedule: Q01DX005 (ip), vehicle: Klucel (hydroxypropylcellulose) (HPC)): 98 % of control
- T/C [9]: 87 % of control
- T/C [10]: 100 % of control

SMILES: NC(CCC(=O)O)C(=O)Nc1ccc(N(CCCl)CCCl)cc1 (stereo unspecified)
- T/C (dose: 1.56 mg/kg/injection, schedule: Q01DX009 (ip), vehicle: saline with Tween-80): 173 % of control
- T/C (dose: 3.12 mg/kg/injection, schedule: Q01DX009 (ip), vehicle: saline with Tween-80): 175 % of control
- T/C (dose: 6.25 mg/kg/injection, schedule: Q01DX009 (ip), vehicle: saline with Tween-80): 230 % of control
- T/C (dose: 12.5 mg/kg/injection, schedule: Q01DX009 (ip), vehicle: saline with Tween-80): 92 % of control

SMILES: C/C(=N/OC1=CC(=O)CC(C)(C)C1)c1ccccc1
- T/C [4]: 104 % of control
- T/C [5]: 104 % of control
- T/C [6]: 99 % of control

SMILES: Cc1cc(C)nc(C2=C(O)c3ccccc3C2=O)c1
- T/C [1]: 106 % of control
- T/C [2]: 99 % of control
- T/C [3]: 87 % of control and 96 % of control

SMILES: CCC12CCCN3CCc4c(n(c5ccc(Br)cc45)C(=O)/C(=N\O)C1)C32 (stereo unspecified)
- T/C [14]: 101 % of control
- T/C [15]: 97 % of control
- T/C [16]: 97 % of control

SMILES: COC(=O)N/N=C(/CC1(O)C(=O)Nc2ccccc21)c1ccc(Cl)cc1Cl (stereo unspecified)
- T/C [4]: 99 % of control
- T/C [5]: 93 % of control
- T/C [6]: 92 % of control

SMILES: O=C(O)C(CSC(c1ccccc1)(c1ccccc1)c1ccccc1)NC(c1ccccc1)(c1ccccc1)c1ccccc1 (stereo unspecified)
- T/C [7]: 93 % of control
- T/C [8]: 94 % of control
- T/C (dose: 50.0 mg/kg/injection, schedule: Q01DX009 (ip), vehicle: other): 93 % of control
- T/C (dose: 100.0 mg/kg/injection, schedule: Q01DX009 (ip), vehicle: other): 98 % of control

SMILES: CC1(C)N=C(N)N=C(N)N1c1ccccc1
- T/C (dose: 25.0 mg/kg/injection, schedule: Q04DX003 (ip), vehicle: saline): 104 % of control
- T/C (dose: 50.0 mg/kg/injection, schedule: Q04DX003 (ip), vehicle: saline): 112 % of control

SMILES: CCCCCCCCCCC1(CCCC)C(=O)NC(=O)NC1=O
- T/C (dose: 25.0 mg/kg/injection, schedule: Q01DX009 (ip), vehicle: saline with Tween-80): 110 % of control
- T/C (dose: 50.0 mg/kg/injection, schedule: Q01DX009 (ip), vehicle: saline with Tween-80): 108 % of control
- T/C (dose: 100.0 mg/kg/injection, schedule: Q01DX009 (ip), vehicle: saline with Tween-80): 110 % of control
